From ChEMBL document CHEMBL1201862, “PubChem BioAssay data set” (2004)
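Following 48 hours of exposure in 96-well plates, responses at five concentrations were used to interpolate endpoints linearly. Here, GI50 denotes the concentration required for 50% inhibition of growth.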 Calls of active or inactive are those of the source. Cut-off read from the data, not from the text of the source: active = GI50 up to about 1.1 µM and inactive = higher.

Experiments:
Assay in all cases: DTP human tumour cell line panel, 48 h
[1] = tested on: M14
[2] = tested on: ACHN
[3] = tested on: CCRF-CEM
[4] = tested on: UO-31
[5] = tested on: HCC 2998
[6] = tested on: UACC-62
[7] = tested on: CAKI-1
[8] = tested on: OVCAR-8
[9] = tested on: SNB-75
[10] = tested on: HOP-92
[11] = tested on: SK-MEL-2
[12] = tested on: SF-539
[13] = tested on: Malme-3M
[14] = tested on: RXF 393
[15] = tested on: IGROV-1
[16] = tested on: NCI-H226
[17] = tested on: MCF7
[18] = tested on: NCI-H522
[19] = tested on: HOP-62
[20] = tested on: MDA-N

Measured: GI50

Fc1ccc(-c2sc(-c3cccs3)cc2Cc2cccs2)cc1
inactive: [1] > 100 µM | [2] > 100 µM | [3] 91 µM | [4] > 100 µM | [5] > 100 µM | [6] > 100 µM | [7] > 100 µM | [8] > 100 µM | [9] > 100 µM | [10] > 100 µM | [11] > 100 µM | [12] > 100 µM | [13] > 100 µM | [14] 50.6 µM | [15] > 100 µM | [16] > 100 µM | [17] > 100 µM | [18] > 100 µM

CC1=NNC(=O)C1C1C(=O)NN=C(c2c[nH]c3ccccc23)C1Br (configuration not stated)
active: [15] 1.09 µM
inactive: [1] 23.2 µM | [2] 42.3 µM | [3] 25.7 µM | [4] 48 µM | [6] 83.4 µM | [7] 62.4 µM | [8] 48.9 µM | [9] 13.1 µM | [10] > 100 µM | [19] 40.1 µM | [20] 59.8 µM | [11] 21.1 µM | [12] 50.2 µM | [13] 30.3 µM | [14] > 100 µM | [16] 35 µM | [18] 16.4 µM

CCOC(=O)c1csc(C(CSCc2ccc(OC)cc2)N2C(=O)c3ccccc3C2=O)n1 (configuration not stated)
inactive: [1] > 100 µM | [2] > 100 µM | [3] 35.9 µM | [4] > 100 µM | [5] > 100 µM | [6] 63.5 µM | [7] > 100 µM | [8] > 100 µM | [10] > 100 µM | [19] > 100 µM | [12] > 100 µM | [13] > 100 µM | [14] > 100 µM | [15] > 100 µM | [16] > 100 µM | [17] 73.5 µM | [18] 23.5 µM

COc1ccc2c(c1)CCN1CCc3ccccc3CC21 (configuration not stated)
inactive: [1] 18.2 µM | [2] 45 µM | [3] 33.3 µM | [4] 11 µM | [5] 21.2 µM | [6] 32.3 µM | [7] 47.2 µM | [8] 63.5 µM | [9] 30.2 µM | [10] 20.5 µM | [19] 72.8 µM | [20] 27.4 µM | [11] 57.3 µM | [12] 36.6 µM | [13] 43.1 µM | [15] 56.5 µM | [16] 29 µM | [17] 60.8 µM | [18] 67.3 µM

C=CCn1c(=O)c2ccccc2[n+]2c(C)c(C(=O)OCC)sc12
inactive: [1] > 100 µM | [2] > 100 µM | [3] > 100 µM | [4] > 100 µM | [5] > 100 µM | [6] > 100 µM | [7] > 100 µM | [8] > 100 µM | [19] 42.4 µM | [20] > 100 µM | [11] > 100 µM | [12] > 100 µM | [14] > 100 µM | [15] > 100 µM | [16] > 100 µM | [17] > 100 µM | [18] > 100 µM

CC(C)(C)c1cc(C2NC(=O)NC2=O)cc(C(C)(C)C)c1O (configuration not stated)
inactive: [1] > 100 µM | [2] > 100 µM | [3] 26.1 µM | [4] > 100 µM | [6] 45.1 µM | [7] > 100 µM | [8] 85.7 µM | [9] 29.4 µM | [10] 38.1 µM | [19] > 100 µM | [20] 47 µM | [11] > 100 µM | [12] > 100 µM | [13] 80 µM | [14] 33.3 µM | [15] > 100 µM | [16] > 100 µM | [17] 24.7 µM | [18] 32.8 µM

CSC1=C(C(=O)Nc2ccccc2)C(N)=NC1=O
inactive: [3] > 100 µM | [4] 17.1 µM | [5] > 100 µM | [6] 62.8 µM | [7] 27.5 µM | [8] > 100 µM | [9] > 100 µM | [20] > 100 µM | [11] > 100 µM | [12] > 100 µM | [13] > 100 µM | [14] 79.3 µM | [16] > 100 µM | [17] 89.7 µM | [18] 11.3 µM

CC(OC(C)(C)C)[C@H](NC(=O)OCc1ccccc1)C(=O)NC(OCc1ccccc1)[C@H]1COC(C)(C)O1 (some centres not stated)
inactive: [1] > 10 µM | [2] > 10 µM | [3] > 10 µM | [4] > 10 µM | [5] > 10 µM | [6] > 10 µM | [7] > 10 µM | [8] > 10 µM | [9] > 10 µM | [10] > 10 µM | [19] > 10 µM | [20] > 10 µM | [11] > 10 µM | [12] > 10 µM | [13] > 10 µM | [14] 21.8 µM | [15] > 10 µM | [16] > 10 µM | [18] > 10 µM
